Measured values: ChEMBL document CHEMBL1201862, “PubChem BioAssay data set” (2004)
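1) Cells in 96-well plates. 2) Compound, 48 h, 5 concentrations. 3) Linear interpolation between surrounding doses. 4) Unreached endpoint = highest concentration. GI50 = concentration required for 50% inhibition of growth.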 Calls of active or inactive are those of the source. No stated cut-off is given here; in the data, active = GI50 up to about 1.1 µM and inactive = higher. Where a SMILES comes first, the peptide text is derived from it. [ ]: non-standard residue; d: D form. Phe(4-Cl) = N[CH](Cc1ccc(Cl)cc1)C(=O)O

Assays:
Experiment in all cases: inhibition of tumour cell growth, NCI panel, 48 h
SNB-75 = tested on: SNB-75
OVCAR-4 = tested on: OVCAR-4
SK-MEL-2 = tested on: SK-MEL-2
RPMI-8226 = tested on: RPMI-8226
786-0 = tested on: 786-0
CAKI-1 = tested on: CAKI-1
COLO 205 = tested on: COLO 205
SK-MEL-5 = tested on: SK-MEL-5
HCT-15 = tested on: HCT-15
K562 = tested on: K562
HCC 2998 = tested on: HCC 2998
SF-295 = tested on: SF-295
LOX IMVI = tested on: LOX IMVI
HL-60 = tested on: HL-60
NCI-H460 = tested on: NCI-H460
SK-OV-3 = tested on: SK-OV-3

SMILES	GI50 (SNB-75)	GI50 (OVCAR-4)	GI50 (SK-MEL-2)	GI50 (RPMI-8226)	GI50 (786-0)	GI50 (CAKI-1)	GI50 (COLO 205)	GI50 (SK-MEL-5)	GI50 (HCT-15) [µM]	GI50 (K562)	GI50 (HCC 2998)	GI50 (SF-295)	GI50 (LOX IMVI)	GI50 (HL-60)	GI50 (NCI-H460)	GI50 (SK-OV-3)
CS(=O)(=O)NNS(=O)(=O)c1ccc(Cl)cc1	> 100 µM (inactive)	> 100 µM (inactive)	> 100 µM (inactive)	> 100 µM (inactive)	> 100 µM (inactive)	36.7 µM (inactive)	> 100 µM (inactive)	> 100 µM (inactive)	> 100	> 100 µM (inactive)	> 100 µM (inactive)	> 100 µM (inactive)	> 100 µM (inactive)	> 100 µM (inactive)	> 100 µM (inactive)	–
Cc1ccc2c(c1)C(c1cccc3ccccc13)OC2=O (stereo not drawn)	36.4 µM (inactive)	35 µM (inactive)	> 100 µM (inactive)	–	56.9 µM (inactive)	> 100 µM (inactive)	> 100 µM (inactive)	31.4 µM (inactive)	> 100	> 100 µM (inactive)	> 100 µM (inactive)	61 µM (inactive)	> 100 µM (inactive)	> 100 µM (inactive)	> 100 µM (inactive)	86.3 µM (inactive)
O=c1c2ccc(Br)cc2nc(-c2ccccc2)n1NC1OC(CO)C(O)C(O)C1O (stereo not drawn)	> 100 µM (inactive)	> 100 µM (inactive)	> 100 µM (inactive)	> 100 µM (inactive)	> 100 µM (inactive)	> 100 µM (inactive)	> 100 µM (inactive)	> 100 µM (inactive)	> 100	> 100 µM (inactive)	> 100 µM (inactive)	> 100 µM (inactive)	–	> 100 µM (inactive)	> 100 µM (inactive)	> 100 µM (inactive)
COC1=CC2(C=CC1=O)c1cc(OC)c(OC)cc1CCN2C(=O)c1ccccc1 (stereo not drawn)	> 100 µM (inactive)	–	–	> 100 µM (inactive)	> 100 µM (inactive)	> 100 µM (inactive)	> 100 µM (inactive)	> 100 µM (inactive)	> 100	> 100 µM (inactive)	> 100 µM (inactive)	> 100 µM (inactive)	> 100 µM (inactive)	–	–	> 100 µM (inactive)
COc1ccc2c(c1)NC1(O)c3ccccc3C(=O)C21O (stereo not drawn)	> 100 µM (inactive)	–	–	> 100 µM (inactive)	> 100 µM (inactive)	> 100 µM (inactive)	> 100 µM (inactive)	> 100 µM (inactive)	–	> 100 µM (inactive)	–	> 100 µM (inactive)	> 100 µM (inactive)	> 100 µM (inactive)	> 100 µM (inactive)	> 100 µM (inactive)
COC(=O)CCC(NC(=S)N/N=C/c1ccco1)C(=O)OC (stereo not drawn)	> 100 µM (inactive)	> 100 µM (inactive)	> 100 µM (inactive)	–	> 100 µM (inactive)	–	> 100 µM (inactive)	> 100 µM (inactive)	> 100	> 100 µM (inactive)	> 100 µM (inactive)	> 100 µM (inactive)	> 100 µM (inactive)	> 100 µM (inactive)	> 100 µM (inactive)	> 100 µM (inactive)
CC(=O)OCC(=O)[C@@]1(O)CC[C@H]2[C@@H]3CCC4=CC(=O)[C@H](C)C[C@]4(C)[C@H]3[C@@H](O)C[C@@]21C	> 100 µM (inactive)	> 100 µM (inactive)	> 100 µM (inactive)	> 100 µM (inactive)	> 100 µM (inactive)	> 100 µM (inactive)	> 100 µM (inactive)	> 100 µM (inactive)	> 100	> 100 µM (inactive)	> 100 µM (inactive)	> 100 µM (inactive)	> 100 µM (inactive)	> 100 µM (inactive)	> 100 µM (inactive)	> 100 µM (inactive)
COC(=N)c1csc(C2OC(CO)C(O)C2O)n1 (stereo not drawn)	–	> 100 µM (inactive)	> 100 µM (inactive)	> 100 µM (inactive)	> 100 µM (inactive)	> 100 µM (inactive)	> 100 µM (inactive)	–	> 100	> 100 µM (inactive)	> 100 µM (inactive)	> 100 µM (inactive)	> 100 µM (inactive)	38.5 µM (inactive)	> 100 µM (inactive)	> 100 µM (inactive)
O=C1c2ccccc2C(Br)(Br)c2ccccc21	14.9 µM (inactive)	1.16 µM (inactive)	> 31.6 µM (inactive)	> 10 µM (inactive)	> 31.6 µM (inactive)	> 10 µM (inactive)	> 31.6 µM (inactive)	> 31.6 µM (inactive)	> 31.6	> 31.6 µM (inactive)	> 31.6 µM (inactive)	> 31.6 µM (inactive)	> 31.6 µM (inactive)	> 31.6 µM (inactive)	> 31.6 µM (inactive)	> 31.6 µM (inactive)
COC(=O)C1(F)C(=O)NC(=O)NC1OC (stereo not drawn)	39.2 µM (inactive)	> 100 µM (inactive)	> 100 µM (inactive)	90.6 µM (inactive)	39.7 µM (inactive)	83.9 µM (inactive)	68.5 µM (inactive)	9.84 µM (inactive)	22.9	96.2 µM (inactive)	–	> 100 µM (inactive)	11.9 µM (inactive)	3.09 µM (inactive)	3.52 µM (inactive)	> 100 µM (inactive)
CC(C)NC(=O)CCN(C(=O)O)S(=O)(=O)c1ccc(NC(=O)c2ccccc2)cc1	> 100 µM (inactive)	> 100 µM (inactive)	> 100 µM (inactive)	34.8 µM (inactive)	> 79.6 µM (inactive)	> 100 µM (inactive)	> 40.6 µM (inactive)	> 100 µM (inactive)	> 42.2	> 43.7 µM (inactive)	> 100 µM (inactive)	> 100 µM (inactive)	39.9 µM (inactive)	> 48.8 µM (inactive)	> 43.2 µM (inactive)	> 100 µM (inactive)
Cc1ccccc1/N=C/c1ccc(N(CCC#N)S(=O)(=O)c2ccccc2)cc1	> 100 µM (inactive)	> 100 µM (inactive)	> 100 µM (inactive)	> 100 µM (inactive)	> 100 µM (inactive)	> 100 µM (inactive)	> 100 µM (inactive)	> 100 µM (inactive)	> 100	> 100 µM (inactive)	> 100 µM (inactive)	> 100 µM (inactive)	> 100 µM (inactive)	32.4 µM (inactive)	> 100 µM (inactive)	> 100 µM (inactive)
CCCCCC1C2C(=O)NC(=O)C1C(=O)NC2=O (stereo not drawn)	> 100 µM (inactive)	> 100 µM (inactive)	> 100 µM (inactive)	> 100 µM (inactive)	> 100 µM (inactive)	> 100 µM (inactive)	> 100 µM (inactive)	> 100 µM (inactive)	> 100	> 100 µM (inactive)	> 100 µM (inactive)	> 100 µM (inactive)	> 100 µM (inactive)	> 100 µM (inactive)	> 100 µM (inactive)	> 100 µM (inactive)
CC1=NN(C(=O)c2ccc(Cl)cc2)C(=O)/C1=C/c1ccc(O)cc1	–	> 100 µM (inactive)	> 100 µM (inactive)	> 100 µM (inactive)	> 100 µM (inactive)	> 100 µM (inactive)	> 100 µM (inactive)	> 100 µM (inactive)	> 100	> 100 µM (inactive)	> 100 µM (inactive)	> 100 µM (inactive)	> 100 µM (inactive)	> 100 µM (inactive)	> 100 µM (inactive)	> 100 µM (inactive)
COc1ccc2c(c1)[n+]([O-])c(C(=O)CC(=O)C(=O)Nc1cccc(Cl)c1C)c(C)[n+]2[O-]	> 100 µM (inactive)	> 100 µM (inactive)	> 100 µM (inactive)	83.6 µM (inactive)	> 100 µM (inactive)	> 100 µM (inactive)	53.7 µM (inactive)	> 100 µM (inactive)	> 100	60.7 µM (inactive)	> 100 µM (inactive)	> 100 µM (inactive)	> 100 µM (inactive)	44.5 µM (inactive)	> 100 µM (inactive)	> 100 µM (inactive)
CCOC(=O)c1c(-c2ccccc2)oc(-c2ccccc2)c1C(=O)OCC	> 100 µM (inactive)	–	94.2 µM (inactive)	50 µM (inactive)	> 100 µM (inactive)	–	99.1 µM (inactive)	56.5 µM (inactive)	–	67.3 µM (inactive)	67.1 µM (inactive)	> 100 µM (inactive)	> 100 µM (inactive)	33.6 µM (inactive)	–	> 100 µM (inactive)
CC(O)C(NC(=O)C(Cc1ccccc1)NC(=O)C(NC(=O)C(CCCCN)NC(=O)C(Cc1c[nH]c2ccccc12)NC(=O)C(Cc1ccc(O)cc1)NC(=O)C(Cc1ccc(Cl)cc1)NC(=O)C(N)Cc1ccccc1)C(C)O)C(N)=O (stereo not drawn) (H-F[Phe(4-Cl)]YWKTFT-NH2; configuration not given here)	21 µM (inactive)	23.9 µM (inactive)	19.9 µM (inactive)	14 µM (inactive)	22.4 µM (inactive)	21.2 µM (inactive)	25.9 µM (inactive)	–	17.9	15.6 µM (inactive)	25.4 µM (inactive)	8.53 µM (inactive)	–	15.3 µM (inactive)	13.7 µM (inactive)	27.6 µM (inactive)
NC(=S)/N=C(/c1nc2ccc(Cl)cc2nc1O)C(O)c1ccccc1Cl (stereo not drawn)	> 100 µM (inactive)	> 100 µM (inactive)	> 100 µM (inactive)	> 100 µM (inactive)	> 100 µM (inactive)	–	> 100 µM (inactive)	–	> 100	> 100 µM (inactive)	> 100 µM (inactive)	> 100 µM (inactive)	> 100 µM (inactive)	> 100 µM (inactive)	> 100 µM (inactive)	> 100 µM (inactive)
